Source: patent US8871767B2, “2-arylimidazo[1,2-B]pyridazine, 2-phenylimidazo[1,2-A]pyridine, and 2-phenylimidazo[1,2-A]pyrazine derivatives” (Hengrui (USA) Ltd., priority 2010, dated 2014)
pIC50: −log10 of the molar value. Like-named read-outs stand apart in the source and are kept apart here.

What was measured:
[1] = test system: Hedgehog pathway activation on 10T1/2/Smo#3 cells (C3H10T1/2 cells transfected with human Smoothened receptor); assay: Hedgehog pathway activation on 10T1/2/Smo#3 cells measured by ALP activity; format: cell-based; details: Mus musculus, C3H 10T1/2, 10T1/2/Smo#3 cells
In short: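 C3H10T1/2 cells stably expressing human Smoothened were activated with hShh-conditioned medium (10-20%) or 500 nM SAG, with test compounds present. Pathway block read as inhibited ALP activity (4-methylumbelliferyl phosphate fluorescence); viability checked by CellTiter-Blue. IC50 values reported.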

[2] = test system: Hedgehog pathway activation (GLi-luciferase reporter) in Shh Light II reporter cells; assay: Hedgehog pathway activation on Shh Light II reporter cells measured by luciferase activity; format: cell-based; details: Mus musculus, Shh Light II
In short: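 Shh Light II reporter cells carrying a hedgehog-responsive GLi-luciferase reporter were stimulated either with 500 nM SAG, a direct Smoothened agonist, or with conditioned media containing human Sonic Hedgehog (hShh). Test compounds were evaluated for blocking this pathway activation, quantified by luciferase activity. Cell viability was monitored in parallel with the Celltiter-Blue® assay.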

[3] = measured by ALP activity, read-out: ALP (IC50, inhibition of Hedgehog pathway activation)
[4] = hShh activation, read-out: Shh (IC50, inhibition of Hedgehog pathway activation)
[5] = hShh activation, ALP activity, read-out: 10T1/2/Smo#3 ALP activity (hShh Activation)
[6] = SAG activation (500 nM SAG), read-out: Shh Light II luciferase activity (SAG activation)
[7] = hShh activation, read-out: Shh Light II luciferase activity (hShh activation)

Row | pIC50 [1, 3] | pIC50 [2, 4] | pIC50 [1, 5] | pIC50 [2, 6] | pIC50 [2, 7] | SMILES
1 | 6.49 | 6.67 |  |  |  | Cc1ccc(-c2nc3ccc(-c4ccccc4F)nn3c2C)cc1NC(=O)C(C)(C)C [Example 312, N-(5-(6-(2-fluorophenyl)-3-methylimidazo[1,2-b]pyridazin-2-yl)-2-methylphenyl)pivalamide]
2 | 7.15 | 7.80 | > 6.52 | > 6.52 | > 6.52 | Cc1ccc(-c2cn3nc(-c4cccnc4C(F)(F)F)ccc3n2)cc1NC(=O)C1(C)CC1 [compound 518, 1-methyl-N-(2-methyl-5-(6-(2-(trifluoromethyl)pyridin-3-yl)imidazo[1,2-b]pyridazin-2-yl)phenyl)cyclopropanecarboxamide]
3 | 5.56 | 5.89 |  |  |  | Cc1ccc(-c2ccc3nc(-c4ccc(C(F)(F)F)c(NC(=O)C(C)(C)C)c4)cn3n2)nc1 [Example 150, N-(5-(6-(5-methylpyridin-2-yl)imidazo[1,2-b]pyridazin-2-yl)-2-(trifluoromethyl)phenyl)pivalamide]
4 | 5.82 | 6.21 |  |  |  | COc1ccc2nc(-c3ccc(C)c(NC(=O)C(C)(C)C)c3)cn2n1 [Example 94, N-(5-(6-methoxyimidazo[1,2-b]pyridazin-2-yl)-2-methylphenyl)pivalamide]
5 | 6.14 | 6.95 |  |  |  | O=C(Nc1cc(-c2cn3nc(-c4cccnc4C(F)(F)F)ccc3n2)ccc1Cl)C1CC1 [Example 676, N-(2-chloro-5-(6-(2-(trifluoromethyl)pyridin-3-yl)imidazo[1,2-b]pyridazin-2-yl)phenyl)cyclopropanecarboxamide]
6 | 8.05 | 7.35 |  |  |  | CNC1CCN(c2ccc3nc(-c4ccc(C(F)(F)F)c(NC(=O)C(C)(C)C)c4)cn3n2)C1 (stereo not shown) [Example 349, N-(5-(6-(3-(methylamino)pyrrolidin-1-yl)imidazo[1,2-b]pyridazin-2-yl)-2-(trifluoromethyl)phenyl)pivalamide]
7 | 5.80 | < 5.00 |  |  |  | CCOc1ccc2nc(-c3ccc(C(F)(F)F)c(S(=O)(=O)NC4CCCCC4)c3)cn2n1 [Example 214, N-cyclohexyl-5-(6-ethoxyimidazo[1,2-b]pyridazin-2-yl)-2-(trifluoromethyl)benzenesulfonamide]
8 | 6.44 | 6.91 |  |  |  | Cc1ccc(-c2cn3nc(-c4ccnc(F)c4)ccc3n2)cc1NC(=O)C(C)(C)C [Example 365, N-(5-(6-(2-fluoropyridin-4-yl)imidazo[1,2-b]pyridazin-2-yl)-2-methylphenyl)pivalamide]
9 | 5.41 | < 5.00 |  |  |  | CCOc1ccc2nc(-c3ccc(C(F)(F)F)c(S(=O)(=O)NCc4ccc(F)cc4)c3)cn2n1 [Example 213, 5-(6-ethoxyimidazo[1,2-b]pyridazin-2-yl)-N-(4-fluorobenzyl)-2-(trifluoromethyl)benzenesulfonamide]
10 | 7.01 | 6.92 |  |  |  | CN[C@@H]1CCN(c2ccc3nc(-c4ccc(C(F)(F)F)c(NC(=O)C(C)(C)C)c4)cn3n2)C1 [Example 634, (R)—N-(5-(6-(3-(methylamino)pyrrolidin-1-yl)imidazo[1,2-b]pyridazin-2-yl)-2-(trifluoromethyl)phenyl)pivalamide]
11 |  |  | 5.52 to 6.52 | 5.52 to 6.52 | 4.52 to 5.52 | COc1ccc2nc(-c3ccc(C)c(NC(=O)C(C)(C)C)c3)cn2n1 [Example 4, N-(5-(6-methoxyimidazo[1,2-b]pyridazin-2-yl)-2-methylphenyl)pivalamide]
12 | 5.91 | 6.21 | 5.52 to 6.52 | 5.52 to 6.52 | 5.52 to 6.52 | CC(=O)NC1CCN(c2ccc3nc(-c4ccc(C)c(NC(=O)C(C)(C)C)c4)c(C)n3n2)C1 (stereo not shown) [Example 363, N-(5-(6-(3-acetamidopyrrolidin-1-yl)-3-methylimidazo[1,2-b]pyridazin-2-yl)-2-methylphenyl)pivalamide]
13 | 6.35 | 6.40 |  |  |  | CC(C)(C)C(=O)Nc1cc(-c2cn3nc(OCCN4CCOCC4)ccc3n2)ccc1C(F)(F)F [Example 306, N-(5-(6-(2-morpholinoethoxy)imidazo[1,2-b]pyridazin-2-yl)-2-(trifluoromethyl)phenyl)pivalamide]
14 | 6.64 |  | > 6.52 | 5.52 to 6.52 | 5.52 to 6.52 | CC(C)(C)C(=O)Nc1cc(-c2cn3nc(-c4ccccc4F)ccc3n2)ccc1OC(F)(F)F [Example 248, N-(5-(6-(2-fluorophenyl)imidazo[1,2-b]pyridazin-2-yl)-2-(trifluoromethoxy)phenyl)pivalamide]
15 | 5.90 | 6.36 |  |  |  | COc1ccc2nc(-c3ccc(C(F)(F)F)c(NC(=O)C(C)(C)C)c3)cn2n1 [Example 125, N-(5-(6-methoxyimidazo[1,2-b]pyridazin-2-yl)-2-(trifluoromethyl)phenyl)pivalamide]
16 | 7.30 | 7.10 |  |  |  | Cc1cc(F)c(-c2cn3nc(-c4cccnc4C(F)(F)F)ccc3n2)cc1NC(=O)C(C)(C)C [Example 649, N-(4-fluoro-2-methyl-5-(6-(2-(trifluoromethyl)pyridin-3-yl)imidazo[1,2-b]pyridazin-2-yl)phenyl)pivalamide]
17 | 6.99 | 6.64 |  |  |  | Cc1ccc(-c2cn3nc(-c4ccccc4OC(F)(F)F)ccc3n2)cc1NC(=O)C(C)(C)C [Example 263, N-(2-methyl-5-(6-(2-(trifluoromethoxy)phenyl)imidazo[1,2-b]pyridazin-2-yl)phenyl)pivalamide]
18 | < 5.00 | 5.60 |  |  |  | CN(C)S(=O)(=O)c1cc(-c2cn3nc(-c4cccnc4C(F)(F)F)ccc3n2)ccc1Cl [Example 700, 2-chloro-N,N-dimethyl-5-(6-(2-(trifluoromethyl)pyridin-3-yl)imidazo[1,2-b]pyridazin-2-yl)benzenesulfonamide]
19 | 5.98 | 5.96 |  |  |  | COc1ccc2nc(-c3ccc(C)c(NC(=O)c4cccc(C(F)(F)F)c4)c3)cn2n1 [Example 100, N-(5-(6-methoxyimidazo[1,2-b]pyridazin-2-yl)-2-methylphenyl)-3-(trifluoromethyl)benzamide]
20 | 6.02 | 5.81 |  |  |  | CN(C)c1ncc(-c2ccc3nc(-c4ccc(C(F)(F)F)c(NC(=O)C(C)(C)C)c4)cn3n2)cn1 [Example 378, N-(5-(6-(2-(dimethylamino)pyrimidin-5-yl)imidazo[1,2-b]pyridazin-2-yl)-2-(trifluoromethyl)phenyl)pivalamide]
21 | 7.06 | 7.03 | > 6.52 | 5.52 to 6.52 | > 6.52 | Cc1ccc(-c2cn3nc(N4CCC(C(N)=O)CC4)ccc3n2)cc1NC(=O)C(C)(C)C [compound 542]
22 | < 5.00 | 6.89 |  |  |  | Cc1ccc(-c2cn3nc(NCc4ccc(C(=O)NOC5CCCCO5)cc4)ccc3n2)cc1NC(=O)C(C)(C)C (stereo not shown) [compound 600]
23 | 6.82 | 7.15 | > 6.52 | > 6.52 | > 6.52 | Cc1ccc(-c2cn3nc(-c4ccc(C(=O)NO)cc4C(F)(F)F)ccc3n2)cc1NC(=O)C(C)(C)C [Example 437, N-hydroxy-4-(2-(4-methyl-3-pivalamidophenyl)imidazo[1,2-b]pyridazin-6-yl)-3-(trifluoromethyl)benzamide]
